Measured values reported in patent US4801600A, “Aminomethyl oxooxazolidinyl cycloalkylbenzene derivatives useful as antibacterial agents” (E. I. Du Pont de Nemours and Company, priority 1987, dated 1989).
Converted amounts (≈) assume the structure as drawn. Read-outs that look alike come from different tables or passages of the source.

Key:
[1] = system: Staphylococcus aureus; assay: Acute lethal mouse model, intraperitoneal Staphylococcus aureus infection; type: in vivo; conditions: 168 h, mice dosed 1 h and 4 h post-infection
Protocol: Determinations of in vivo efficacy are performed by inoculating mice intraperitoneally with cultures of the infecting organism diluted to produce 100% of mortality in control animals within twenty-four hours. The culture of S. aureus used to infect the animals was diluted to the required bacterial density using 5% aqueous hog gastric mucin. The compounds are dissolved or suspended in 0.25% aqueous Methocal® (Methocel®: Hydroxypropyl Methylcellulose, E15 Premium, Dow Chemical Company) for oral administration or sterile distilled water containing 5% dimethylsulfoxide (Fisher Scientific Company, Fairlawn, N.J.) for subcutaneous administration. The mice are dosed at one hour and at four hours post-infection. Mortality is recorded daily until test termination seven days post infection. The number of survivors in each treatment group on the seventh day after infection is used in the calculation of the ED50, the dose of compound that protects 50% of the mice (Litchfield, J. T. and Wildoxon. A simplified method for evaluating dose-effect experiments. J. Pharmacol Exp. Ther., 96:99-113, 1949 ).

[2] = system: Escherichia coli; assay: In vitro broth microdilution MIC, Escherichia coli; type: cell-based; conditions: 24-hour MIC, Mueller-Hinton broth, read-out: Minimum Inhibitory Concentration, Escherichia coli
Text: (§1) A standard microdilution method (National Committee for Clinical Standards. Tentative standard M7-T. Standard methods for dilution antimicrobial susceptibility tests for bacteria that grow aerobically. National Committee for Clinical Laboratory Standards, Villanova, PA. 1982) with Mueller-Hinton broth is used to determine the 24-hour minimal inhibitory concentrations (MIC's) for test strains of Staphylococcus aureus and Escherichia coli.

[3] = system: Staphylococcus aureus; assay: In vitro broth microdilution MIC, Staphylococcus aureus; type: cell-based; conditions: 24-hour MIC, Mueller-Hinton broth, read-out: Minimum Inhibitory Concentration, Staphylococcus aureus
Text: as §1

[4] = oral, survival at day 7, read-out: ED50, Oral Administration
[5] = sc, subcutaneous, survival at day 7, read-out: ED50, Subcutaneous Administration

Row | SMILES | ED50 [1, 4] [mg/kg] | ED50 [1, 5] [mg/kg] | MIC [2] [µg/mL] | MIC [3] [µg/mL]
1 | CC(=O)NCC1CN(c2ccc3c(c2)CCC3)C(=O)O1 (single isomer, unassigned) [Example 1F, (l)-N-[3-(2,3-Dihydro-1H-inden-5-yl)-2-oxooxazolidin-5-ylmethyl]acetamide] | 2.2 | 1.7 | > 128 | 2 (≈ 7.29 µM)
2 | CC(=O)NCC1CN(c2ccc3c(c2)CCC3=O)C(=O)O1 (single isomer, unassigned) [Example 16, (l)-N-[3-(2,3-Dihydro-1-oxo-1H-inden-5-yl)-2-oxooxazolidin-5-ylmethyl]acetamide] | 1.6 | 1.2 | > 128 | 2 to 4 (≈ 6.94 to 13.9 µM)
3 | CC(=O)NCC1CN(c2ccc3c(c2)CCC3O)C(=O)O1 (single isomer, unassigned) [Example 17, (l)-N-[3-(2,3-Dihydro-1-hydroxy-1H-inden-5-yl)-2-oxooxazolidin-5-ylmethyl]acetamide] | 1.9 | 1.8 | > 128 | 8 (≈ 27.6 µM)
4 | CC(=O)NCC1CN(c2ccc3c(c2)CCC3=NN2CCN(C)CC2)C(=O)O1 (single isomer, unassigned) [Example 18, (l)-N-[3-[1,2-Dihydro-1-(4-methyl-1-piperazinylimino)-1H-inden-5-yl]-2-oxooxazolidin-5-ylmethyl]acetamide] | 13.9 | 20.3 | > 128 | 8 to 16 (≈ 20.8 to 41.5 µM)
